Data from publication PMC7170889, “Synthesis and evaluation of designed PKC modulators for enhanced cancer immunotherapy” (Nature Communications, 2020).
Read-outs that look alike come from different tables or passages of the source.

Experiments:
[1] = test system: CD22 surface expression in NALM6 cells; test: CD22 surface expression in NALM6 cells (flow cytometry); assay type: cell-based, human
Method: CD22 Surface Expression Protocol – NALM6 Cells […]
unless otherwise noted below) at 37 ° C in an incubator (5% CO2). Cell cultures were maintained […]
Cell suspension from a confluent T75 flask (Fisher) was transferred to a 15 mL falcon tube and centrifuged at 1100 rpm for 7 minutes. The supernatant was aspirated, and the cell pellet was […]
Cells were counted using a Countess II Automated Cell
199 µL of this stock was added to 24 wells (enough for triplicate measurements for 8 different experimental conditions) in a 96-well plate. Dosing was […]
each experiment. 1 µL of DMSO or the appropriate stock solution of compound in DMSO was added to each well. Cells were incubated for 24 hours, at which point the cell suspensions were transferred to 1.5 mL Eppendorf tubes and diluted with 1.0 mL of PBS (Hyclone, without Ca2+ or Mg2+). Samples were centrifuged at 2000 rpm for 5 min at RT. The supernatant was aspirated, […]
Cells were sub-cultured between 2 […]
surface expression was assayed by flow cytometry.
Cells from one well were counted using a Countess II Automated Cell Counter (Fisher). ~200,000 – 300,000 cells from each well were added to 1.5 mL Eppendorf tubes containing PBS (final volume ~1.2 mL). The cell suspensions were centrifuged at 1500 rpm for 7 minutes at 4 °C. The supernatant was aspirated, and the cell pellet was resuspended in 99 µL of pre-chilled FACS […]
buffer (0.5% w/v BSA in PBS). […]
minutes. Samples were then diluted with an additional 1.0 mL of FACS buffer and centrifuged at 1500 rpm for 7 minutes at 4 °C. The supernatant was aspirated, the cell pellets were resuspended in 200 µL FACS buffer, and the resulting suspensions were transferred to FACS tubes (Fisher, […]
Cells were stained with DAPI and CD22 surface expression was analyzed using the FACScan Analyzer at the Stanford Shared FACS Facility. Data analysis was performed using FlowJo and Microsoft Excel.

PKCδ-GFP fusion protein = target: T1, PKCδ-GFP fusion protein (Homo sapiens, UniProt Q05655); test: PKCδ-GFP translocation assay in living CHO-k1 cells (confocal microscopy); assay type: cell-based, Chinese hamster; conditions: for minimum effective concentration required to induce translocation of PKC-GFP to the membrane: tested at 200 and 1000 nM; for Emax at 1 µM: CHO-K1, 1000 nM compound
T1 construct: expressed in transfected cells; host or cells: CHO-k1 (Chinese hamster ovary, ATCC)
Method: (§1) With a panel of compounds bearing diverse functionality at C13, we began to explore how these modifications affect PKC binding and biological function. Because an obvious prerequisite for PKC pathway involvement is binding to PKC, compounds were initially evaluated for PKC affinity in a cell-free competitive binding assay with tritiated phorbol dibutyrate ([^3H]-PDBu). Assays were performed with representative members of both the conventional (PKCα) and novel (PKCδ) PKC families. Subsequently, compounds were assayed for PKC isoform translocation in real time in living cells using an optical assay. Translocation to the plasma membrane is the hallmark of PKC activation[18],[57],[60] and therefore monitoring the subcellular localization of a PKCδ-GFP fusion protein via confocal microscopy offers a convenient method for determining whether a compound enters a cell and engages its PKC isoform target. Finally and of clinical significance, we also determined the effect of compounds on CD22 surface expression in vitro in NALM6 cells, an ALL cell line previously studied in connection with CD22-targeted CAR T cell therapy, and two additional lymphoma cell lines[11],[31],[65].
Scale bar represents 25 μm. Experiments performed in n = 3 biological replicates. b–d Cytosolic fluorescence normalized to t = 0 (time immediately prior to addition of compound to media) and plotted against time. Error bars excluded for clarity (data presented as the mean of n = 3 biological replicates). Individual curves with error bars included in Supplementary Information.
PKCδ-GFP Translocation Assay Protocol
Chinese hamster ovary factor K1 (CHO-k1, ATCC) cells were cultured in F-12 Kaighn’s media (Hyclone, 10% fetal bovine serum, 1% penicillin/streptomycin added, reffered to as F-12 +/+ below) at 37 ° C in an incubator (5% CO2). Cell cultures were maintained by splitting cells 1:3 when they reached ~75-100% confluence (every 2-3 days) as follows:
(Gibco) was used to remove the cells from the culture flask (T75, Falcon). 1 mL of the cell suspension was then added to 9 mL of fresh F-12 +/+ and the sample was sub-cultured until reaching confluence (~2-3 days).
Cells were counted using a Countess II Automated Cell Counter (Fisher). The cell suspension was diluted to 240,000 cells/mL with fresh F-12 +/+ and 2.5 mL of this diluted stock was added to one well in a 6-well plate. The cells were then cultured for 24 hours.
Cells were transfected with Lipofectamine 2000 reagent (Invitrogen) or DA 13:11 at a 10:1 charge […]
F-12 +/+ was aspirated and cells were washed with F-12 -/-. 2 mL of fresh F-12 -/- was then added to each well, taking care not to disturb adherent cells. For each well of CHO-k1 cells, 12.5 µL Lipofectamine 2000 reagent (Invitrogen) was added to 250 µL Opti-MEM reduced serum media (Invitrogen) in a polypropylene tube and incubated for 20 minutes at RT. Meanwhile, for each well, 4 µg of PKCδ-GFP pDNA and 250 µL Opti-MEM reduced serum media was added to a separate polypropylene tube. 250 µL of the Lipofectamine 2000 suspension was added to the DNA suspension and the solution incubated for 30 minutes at RT. 500 µL of the Lipofectamine/DNA suspension was added to the respective wells of the 6-well plate. The cells were then incubated at 37 ° C (5% CO2) for ~24 hrs.
F-12 +/+ was aspirated and cells were washed with F-12 -/-. 2.4 mL of fresh F-12 -/- was then added to each well, taking care not to disturb adherent cells. A 4 µg aliquot of PKCδ-GFP pDNA was added to PBS (pH 5.5, final volume 100 µL). 5.6 µL of DA 13:11 (2 mM stock in DMSO) was then added to the DNA solution, and the mixture was gently mixed (by flicking) for 20 seconds, at which point it was added directly to the respective wells of the 6-well plate.

[2] = test system: CD22 surface expression in JB cells; test: CD22 surface expression in JB cells (flow cytometry); conditions: 1 nM or 10 nM, 48 h, n = 6
Method: (§19) Compound was washed out and cells were sub-cultured for the indicated times. […] CD22 surface expression was then assayed by flow cytometry (n = 3 biological replicates; data presented as mean values ± SE). c JB cells were incubated with 1 nM (blue bars) or 10 nM (orange bars) of compound for 48 h. CD22 surface expression was then assayed by flow cytometry (n = 6 biological replicates; data presented as mean values ± SE). d 2F7 cells were incubated with 1 nM (blue bars) or 10 nM (orange bars) of compound for 48 h. CD22 surface expression was then assayed by flow cytometry (n = 6 biological replicates; data presented as mean values ± SE).
(§20) JB is an Epstein–Barr virus (EBV)-negative AIDS-lymphoma cell line originally grown out of a bone marrow sample derived from an HIV+ individual, which harbors the Burkitt lymphoma translocation[66]. 2F7 is an AIDS-associated non-Hodgkin’s lymphoma cell line of the Burkitt subtype, which is positive for EBV[67].
(§21) AIDS-NHL cell lines were incubated in IF10 medium, consisting of IMDM
(§22) medium (Life technologies) containing 10% fetal bovine serum (FBS, Omega Scientific), 100
(§23) units/mL of penicillin, and 100 μg/ml of streptomycin (Invitrogen). Cells were incubated at 37 °C
(§24) AIDS-NHL cells were cultured in a u-bottomed 96-well
(§25) tissue culture plates with a cell density of 200,000 cells/well in a 200 μL volume of IF10 media
(§26) were exposed to compound for the either 24 or 48 h before staining and flow cytometric analysis
(§27) Cells in each well were washed with phosphate buffered saline (PBS) containing
(§28) 2% FBS, then cells were centrifuged for 9 min at 233 xg and resuspended in 50 μL of a 1:1 dilution
(§29) of phosphate buffered saline (PBS): Human AB serum (Sigma).
(§30) cells were washed and fixed in 2% paraformaldehyde. Stained samples were stored at 4 °C.
(§31) cytometry samples were analyzed using a FACSCelesta (BD Biosciences) flow cytometer and data
(§32) were analyzed using FlowJo software (version 10).

[3] = test system: CD22 surface expression in 2F7 cells; test: CD22 surface expression in 2F7 cells (flow cytometry); conditions: 1 nM or 10 nM, 48 h, n = 6
Method: as §19, §20, §21, §22, §23, §24, §25, §26, §27, §28, §29, §30, §31, §32

PKC = PKC competitive binding assay, isoform not specified; parameters: species or system human
Method: as §1
(§2) PKC Binding Assay Protocol […]
(§3) competition with 3H-phorbol-12,13-dibutyrate (3H-PDBu) as described below. This procedure entails a glass-fiber filtration method to determine bound radioligand.
(§4) Preparation of PKC binding assay buffer
(§5) To a 50 mL polypropylene tube was added Tris-HCl (pH 7.4, 1 M, 1 mL), KCl (1 M, 2 mL), CaCl2 (0.1 M, 30 μL), and bovine serum albumin (BSA, 40 mg, Sigma-Aldrich). This mixture was diluted to 20 mL with deionized H2O and mixed gently. The buffer was stored on ice until use. The final […]
(§6) Supplementary Table1. PKC binding assay buffer composition.
(§7) Preparation of phosphatidylserine (PS) vesicles
(§8) For every two assays, 3.5 mg phosphatidylserine (Avanti Polar Lipids, porcine, 25 mg/mL CHCl3 solution) was concentrated by removing chloroform under a stream of nitrogen followed by reduced pressure. The solid PS was suspended as vesicles in freshly prepared PKC binding assay buffer (3.5 mL) by sonicating six times for 30 sec, with a 30 sec rest between sonications (Branson Sonifier 250, power = 2, 50% duty cycle). The resulting milky cloudy mixture (1 mg/mL) was stored […]
(§9) Preparation of PKC isoform solution
(§10) Assay PKC was prepared by dissolving a 4 μg aliquot of the indicated recombinant human PKC isoform (Invitrogen) into 11.6 mL of PKC binding assay buffer (this amount is sufficient for two assays). The diluted PKC was stored on ice for immediate use.
(§11) Preparation of 3H-PDBu solution
(§12) 3H-PDBu (American Radiolabeled Chemicals, Inc.; 1 mCi/mL acetone solution; specific activity: […]) was diluted 10-fold with DMSO. The resulting 500 nM stock solution was further diluted with DMSO to 30 nM.
(§13) Preparation of analog compound dilutions
(§14) Compound dilutions were prepared by serially diluting from a chosen "high" concentration by factors of 3 or 4. For each analog compound, seven concentrations were used to define the […]
(§15) To a polypropylene tube was added 3.3 mL of 1 mg/mL PS vesicles solution, 11 mL of PKC isoform solution, and 1.1 mL of 30 nM 3H-PDBu solution were added. The resulting solution was vortexed to mix and stored on ice.
(§16) PKC binding assay protocol
- Glass-fiber filters (Whatman GF/B) were prepared by soaking them in a solution of […]

PKCα = target: T2, PKCα (Homo sapiens, UniProt P17252); test: PKC competitive binding assay with [3H]-phorbol dibutyrate (PKCα)
T2 construct: purchased Invitrogen
Method: as §1, §2, §3, §4, §5, §6, §7, §8, §9, §10, §11, §12, §13, §14, §15, §16
(§17) - Glass-fiber filters (Whatman GF/B) were prepared by soaking them in a solution of aqueous polyethyleneimine (10% by vol, 18 mL) in deionized water (600 mL) for ≥1h.
(§18) - 500 mL "rinsing buffer" of 20 mM Tris, pH 7.4 was cooled on ice for the duration of the incubation period and for the remainder of the assay.
Triplicate data points were obtained for each analog concentration. For each data point, 280 μL of "Master Mix" Solution and 20 μL of analog compound at a specified concentration were added to a polypropylene tube. Non-specific 3H-PDBu binding was assessed in triplicate by substitution

PKCδ = target: T3, PKCδ (Homo sapiens, UniProt Q05655); test: PKC competitive binding assay with [3H]-phorbol dibutyrate (PKCδ); conditions: cell-free, competition with [3H]-PDBu, PS vesicles
T3 construct: purchased Invitrogen
Method: as §1, §2, §3, §4, §5, §6, §7, §8, §9
Assay PKC was prepared by dissolving a 4 μg aliquot of the indicated recombinant human PKC isoform (Invitrogen) into 11.6 mL of PKC binding assay buffer (this amount is sufficient for two assays). The diluted PKC was stored on ice for immediate use. […]
μCi/mmol) was diluted 10-fold with DMSO. The resulting 500 nM stock solution was further diluted with DMSO to 30 nM.
as §13, §14, §15, §16, §17, §18
Triplicate data points were obtained for each analog concentration. For each data point, 280 μL of "Master Mix" Solution and 20 μL of analog compound at a specified concentration were added to a polypropylene tube. Non-specific 3H-PDBu binding was assessed in triplicate by substitution […]
μM). Maximal 3H-PDBu binding was assessed in triplicate by substitution of the analog compound with 20 μL DMSO. The solutions were vortexed to mix, incubated at 37 °C for 10 min, and […]

[4] = CHO-k1 cells, n = 3, read-out: % Translocation (maximum translocation of PKCδ-GFP to the plasma membrane)
[5] = cell-free, competition with [3H]-PDBu, PS vesicles, read-out: Ki PKCα

T1 sequence (Q05655 whole entry, the tested form may be a part): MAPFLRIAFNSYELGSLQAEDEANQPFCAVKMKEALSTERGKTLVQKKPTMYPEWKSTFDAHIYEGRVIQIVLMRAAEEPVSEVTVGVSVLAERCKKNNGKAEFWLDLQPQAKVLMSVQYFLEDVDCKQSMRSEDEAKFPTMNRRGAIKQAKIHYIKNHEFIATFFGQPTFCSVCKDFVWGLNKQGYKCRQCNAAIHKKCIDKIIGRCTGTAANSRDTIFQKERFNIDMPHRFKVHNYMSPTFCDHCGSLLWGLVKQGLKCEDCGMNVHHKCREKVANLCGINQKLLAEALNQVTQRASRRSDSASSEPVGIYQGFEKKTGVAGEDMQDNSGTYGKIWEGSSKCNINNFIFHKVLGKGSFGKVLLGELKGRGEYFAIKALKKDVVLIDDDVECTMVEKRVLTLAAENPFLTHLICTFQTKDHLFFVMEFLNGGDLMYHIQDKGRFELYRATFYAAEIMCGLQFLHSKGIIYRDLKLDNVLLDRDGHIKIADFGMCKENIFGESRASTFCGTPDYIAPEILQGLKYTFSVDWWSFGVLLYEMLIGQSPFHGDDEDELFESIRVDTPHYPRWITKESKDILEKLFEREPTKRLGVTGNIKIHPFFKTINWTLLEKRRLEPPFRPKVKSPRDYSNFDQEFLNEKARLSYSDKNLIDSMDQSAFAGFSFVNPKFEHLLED
T3 sequence (Q05655 whole entry): as the sequence (Q05655 whole entry, the tested form may be a part) above

SMILES | minimum effective concentration required to induce translocation of PKC-GFP to the membrane (PKCδ-GFP fusion protein; CHO-k1 cells) [nM] | upregulation of CD22 surface expression [2] | upregulation of CD22 surface expression [3] | Ki (PKCδ) [nM] | Emax at 1 µM (PKCδ-GFP fusion protein; [4]) [%] | Ki (PKCα; [5]) [nM] | other results
C=CCOC(=O)/C=C1/C[C@H]2C[C@]3(O)O[C@H](C[C@@H](O)CC(=O)O[C@@H]([C@@H](C)O)C[C@@H]4C/C(=C\C(=O)OC)[C@H](OC(=O)/C=C/C=C/CCC)[C@@](O)(O4)C(C)(C)/C=C/[C@@H](C1)O2)C[C@H](OC(C)=O)C3(C)C [SUW229] | 200 | ~ 2 fold | ~ 2 fold |  |  |  | fold induction at 0.001 µM ([1]; Homo sapiens, NALM-6, 24 h, NALM6 cells at 1 nM relative to DMSO control, 24 h incubation, washout, 24 h sub-culture, n = 3, read-out: Fold increase CD22 expression): 2.35; Emax at 0.2 µM (PKCδ-GFP fusion protein; CHO-K1, 200 nM compound, CHO-k1 cells, n = 3, read-out: % Translocation (maximum translocation of PKCδ-GFP to the plasma membrane)): 50%; PKC activation dynamics (shape of translocation curve) (PKCδ-GFP fusion protein; Fig. 5c, d): more sustained linear activation dynamics
CCC/C=C/C=C/C(=O)O[C@H]1/C(=C/C(=O)OC)C[C@H]2C[C@H]([C@@H](C)O)OC(=O)C[C@H](O)C[C@@H]3C[C@H](OC(C)=O)C(C)(C)[C@](O)(C[C@@H]4C/C(=C/C(=O)OC)C[C@H](/C=C/C(C)(C)[C@]1(O)O2)O4)O3 [Bryostatin 1, reference compound] |  | ~ 2 fold | ~ 2 fold |  |  |  | duration of sustained increase in CD22 surface expression following treatment ([1]; NALM6 cells, 10 nM for 24 h, then washout and sub-culture): up to 7 days; increase in CD22 surface density ([1]; NALM6 cells, 24 h incubation, Fig. 6): > 2 fold; PKC binding affinity in words (PKC; conventional and novel PKC isoforms): single-digit nanomolar; Ki (PKCα): 0.8 nM
CCCC=CC=CC(=O)OC1C(=CC(=O)OC)CC2CC(C(C)O)OC(=O)CC(O)CC3CC(OC(C)=O)C(C)(C)C(O)(CC4CC(=CC(=O)OCc5ccccc5)CC(C=CC(C)(C)C1(O)O2)O4)O3 (centres unmarked) [SUW219] | 1000 |  |  | 25 | 60 | 37 | decrease in affinity to PKC (PKC; benzyl enoates, (Z) olefin geometry, comparator not stated): ~ 2 fold
CCCC=CC=CC(=O)OC1C(=CC(=O)OC)CC2CC(C(C)O)OC(=O)CC(O)CC3CC(OC(C)=O)C(C)(C)C(O)(CC4CC(OC(=O)CN(C)C)CC(C=CC(C)(C)C1(O)O2)O4)O3 (centres unmarked) [SUW212] | 1000 |  |  | 24 | 50 | 40 | decrease in affinity to PKC (PKC; charged substituents at C13, Table 1 data): 20-100 fold; sustained translocation of PKC (PKCδ-GFP fusion protein; at up to 1000 nM): did not achieve sustained translocation of PKC
CCCC=CC=CC(=O)OC1C(=CC(=O)OC)CC2CC(C(C)O)OC(=O)CC(O)CC3CC(OC(C)=O)C(C)(C)C(O)(CC4CC(=CC(=O)OC)CC(C=CC(C)(C)C1(O)O2)O4)O3 (centres unmarked) [SUW201] |  | ~ 2 fold | ~ 2 fold |  |  |  | Ki (PKCα; read-out: Ki PKCα, cell-free, competition with [3H]-PDBu, PS vesicles): 0.54 nM
